Assay results reported in US6020327A, “Control of hair growth” (The Central Sheffield University Hospitals NHS Trust, priority 1994, dated 2000).
Where two headings read alike, the source gives them in different places.

Assays:
aromatase [1] = target: T1, aromatase (Homo sapiens, UniProt P11511); test: Aromatase by tritiated water assay in minced scalp skin samples, with and without aromatase inhibitor; type: biochemical; design: endogenous in cells; host or cells: cultured human non-follicular skin fibroblast lines (beard, occipital scalp, frontal scalp); details: addition of 25 nmol to minced scalp skin samples
T1 sequence (P11511 1-503): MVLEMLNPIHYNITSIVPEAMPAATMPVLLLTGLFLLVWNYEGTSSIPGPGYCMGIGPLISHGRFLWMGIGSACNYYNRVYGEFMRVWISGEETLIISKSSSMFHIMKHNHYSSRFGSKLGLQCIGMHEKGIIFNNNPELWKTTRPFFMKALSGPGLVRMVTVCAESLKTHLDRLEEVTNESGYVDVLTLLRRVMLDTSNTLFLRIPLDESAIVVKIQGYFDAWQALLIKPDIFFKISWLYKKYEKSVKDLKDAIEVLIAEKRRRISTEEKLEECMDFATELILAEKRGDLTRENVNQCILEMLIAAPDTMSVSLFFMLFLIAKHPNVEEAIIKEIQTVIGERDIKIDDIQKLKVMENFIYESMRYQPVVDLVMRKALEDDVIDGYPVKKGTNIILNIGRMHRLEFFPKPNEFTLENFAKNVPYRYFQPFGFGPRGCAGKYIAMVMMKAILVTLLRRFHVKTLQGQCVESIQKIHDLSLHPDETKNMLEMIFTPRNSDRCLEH
Procedure: To determine whether the results obtained using cell culture are representative of events occurring in vivo aromatase was measured by the tritiated water assay in skin samples from male and female scalp. Tissue was minced and then incubated with 1β^3 H-androstenedione together with a source of NADPH. Each assay was done in the presence and absence of an aromatase inhibitor (4OH-androstenedione). Placental tissue was used as a positive control.

aromatase [2] = target: T1, aromatase; test: Aromatase activity by tritiated water release assay in cultured skin fibroblasts: substrate kinetics and inhibition
Procedure: (§2) Enzymic kinetic values were established by incubating cells with the substrate (androstenedione) in a range of concentrations.
(§3) Enzyme kinetic values were established by incubating cells with the substrate (androstenedione) in a range of concentrations.

[3] = tested on: aromatase activity in skin fibroblasts; test: Stimulation of fibroblast aromatase by pre-incubating cultured skin fibroblasts with hormones (tritiated water release assay); type: cell-based, human; details: for fold induction at 0.01 µM: Homo sapiens, Skin fibroblast
Procedure: (§1) In a preliminary study to investigate the above hypothesis we have measured aromatase activity in cultured human hair follicle dermal papilla cell lines and non-follicular skin fibroblasts from body sites with different responses to androgens. Aromatase was measured using the tritiated water released assay (13). The results are summarised as follows:
Fibroblast aromatase was stimulated by pre-incubating cells with testosterone at physiological concentrations (10 nmol). 19 cell lines were studied. Mean fold increase in aromatase activity (+/- SEM) was 2.69+/-0.38 (p<0.02 paired test). In separate experiments on three cell lines the response to a range of concentrations of testosterone and DHT was studied. Testosterone gave a twofold increase in aromatase maximal at 10 nmol. At the same concentration in response to DHT was over twice as great (4.3 fold).
Fibroblast aromatase was stimulated by pre-incubating the cells with testosterone at a physiological concentration (10 nmol). 19 cell lines were studied. Mean fold increase in aromatase activity (+/- SEM) was 2.69+/-0.38 (p<0.02 paired t test). In separate experiments on three cell lines the response to a range of concentrations of testosterone and DHT was studied. Testosterone gave a 2 fold increase in aromatase maximal at 10 nmol. At the same concentration the response to DHT was over twice as great (4.3 fold).

[4] = tested on: aromatase activity in hair follicle dermal papilla cells; test: Induction of aromatase in cultured hair follicle dermal papilla cells (tritiated water release assay); type: cell-based, human
Procedure: as §1
No aromatase was detected in hair follicle dermal papilla cells cultured through any of the above sites (fourteen cell lines).
No aromatase was detected in hair follicle dermal papilla cells cultured from any of the above sites (14 cell lines).

balding = details: topical application, humans; cited from earlier work
female hair loss = details: several small trials, taken orally; cited from earlier work
[5] = substrate: C[C@]12CCC(=O)C=C1CC[C@@H]1[C@@H]2CC[C@]2(C)C(=O)CC[C@@H]12; test: cells, lysate or membranes; details: other: skin fibroblast lines from beard, occipital scalp and frontal scalp; no difference between the three sites
Procedure: as §2, §3

[6] = read-out: Fold increase in aromatase

C[C@]12CCC(=O)C(O)=C1CC[C@@H]1[C@@H]2CC[C@]2(C)C(=O)CC[C@@H]12 [4-OH androstenedione]
Effect on aromatase activity in scalp tissue (aromatase [1]): reduced activity to background levels | IC50 (aromatase [2]): ~25 nM | Type of inhibition of fibroblast aromatase (kinetic studies) (aromatase [2]; three cell lines): irreversible competitive inhibition

C[C@]12CCC(=O)C[C@@H]1CC[C@@H]1[C@@H]2CC[C@]2(C)[C@@H](O)CC[C@@H]12 [DHT, dihydrotestosterone]
fold induction at 0.01 µM [3, 6]: 4.3

C[C@@H]1C[C@H]2[C@@H]3CCC4=CC(=O)C=C[C@]4(C)[C@@]3(F)[C@@H](O)C[C@]2(C)[C@@]1(O)C(=O)CO [Dexamethasone]
Induction of aromatase in dermal papilla cells [4]: induced aromatase | Stimulation of aromatase in fibroblasts ([3]; skin fibroblasts): 10-20 fold

Nc1cc(N2CCCCC2)nc(N)[n+]1[O-] [Minoxidil]
Subjects with modest recovery in early balding (balding): about 30 % of subjects

CC(=O)O[C@]1(C(C)=O)CC[C@H]2[C@@H]3C=C(Cl)C4=CC(=O)[C@@H]5C[C@@H]5[C@]4(C)[C@H]3CC[C@@]21C [cyproterone acetate]
Effect on the aromatase response to testosterone and DHT ([3]; skin fibroblasts, androgen receptor blockade): inhibited | Effect in female hair loss (female hair loss): small positive affect

C[C@]12CC[C@H]3[C@@H](CCC4=CC(=O)CC[C@@]43C)[C@@H]1CC[C@@H]2O [testosterone]
Induction of aromatase in dermal papilla cells [4]: failed to induce aromatase | fold induction at 0.01 µM [3, 6]: 2 | fold induction at 0.01 µM ([3]; read-out: Mean fold increase in aromatase activity (+/- SEM)): 2.69 ± 0.38 | Mean fold increase in aromatase activity (+/- SEM) ([3]; pre-incubation with 10 nmol, 19 fibroblast cell lines, p<0.02): 2.69+/-0.38 fold | Fold increase in aromatase ([3]; separate experiments on three cell lines, range of concentrations, at 10 nmol (maximal for testosterone)): twofold

B1: aromatase (Homo sapiens) (protein)
chain: T1 sequence (P11511 1-503)
Km [5]: 25 nmol
